Data from patent US20100249125A1, “INHIBITION OF PROSTGLANDIN E2 RECEPTORS FOR THE TREATMENT OF ENDOMETRIOSIS” (THE TEXAS A&M UNIVERSITY SYSTEM, priority 2009, published 2010).
“Also recorded” adds a separate entry of the source. Where two headings read alike, the source gives them in different places.

Assays:
endometriotic implant = settings: hamster model; through caspase-3 dependent apoptosis; cited from earlier work
[1] = test system: human immortalized endometriotic epithelial cells 12Z and stromal cells 22B; settings: associated with decreased PGE2 production; cited from earlier work
estrogen receptor = settings: treatment of endometriosis in women; cited from earlier work
[2] = test system: human endometriotic epithelial cells 12Z; test: Cell viability assay (WST-1); assay type: cell-based; settings: 12Z cells; AH6809 75 μM, AH23848 50 μM, alone or combined; vs control
Experimental: (§1) Cell Viability Assay: The 12Z and 22B cells (1.25×10^4 cells/well) were cultured in DMEM/F12 with 10% FBS in 96-well plates and treated as described previously. At the end of the experiments the cell viability (metabolic activity) was determined using a cell proliferation assay kit WST-1 according to the manufacturer's (Roche Applied Sciences) instructions. Metabolic activity recorded in control cells was considered as 100%. Data were expressed as mean±SEM of three independent experiments conducted in triplicate.

[3] = test system: human endometriotic stromal cells 22B; test: Cell viability assay (WST-1); assay type: cell-based; settings: 22B cells; AH6809 75 μM, AH23848 50 μM, alone or combined; vs control
Experimental: as §1

[4] = test system: human endometriotic epithelial cells 12Z; test: Cell proliferation assay (Coulter counter); assay type: cell-based; settings: 12Z cells; 0-200 concentration series
Experimental: (§2) EP2/EP4 small interfering RNA (siRNA): 12Z and 22B cells (3.0×10^5/well) were cultured in antibiotic-free DMEM/F12 with 10% FBS in six-well tissue culture plates. At 70-80% confluency, cells were used for EP2, EP4 or EP2/EP4 knock-down experiments using SMART-pool siRNA duplex delivered by DharmaFect-1 as described previously (11) and per manufacturer's instructions (Dharmacon Inc, Lafayette, Colo.). As an internal control, MOCK siRNA was used. According to the manufacturer's instructions, SMARTpool siRNA were consisted of at least four individual siRNA duplexes targeted against a specific gene and designed using a bioinformatics technology known as SMARTselection. […] The inventors used SMARTpool siRNA in order to use more than one siRNA duplex from different regions of the gene of interest to avoid non-specific indirect effects of single siRNA duplex to a single region of the target gene. Briefly, siRNA duplexes (100 nM/well) and DharmaFect-1 (3 μl/well) were diluted in 50 μl antibiotic and serum-free DMEM/F12 medium separately and mixed gently and incubated for 5 min at room temperature. Afterwards, EP2, EP4 or EP2/EP4 siRNA and DharmaFect-1 were mixed (total volume 100 μl) and incubated at room temperature for 20 min. Then, 100 μl siRNA: DharmaFect-1 complex was diluted with 2 ml antibiotic-free media with 10% FBS and added to the well. After 24 h, the medium was replaced with fresh DMEM/F12 with 10% FBS and incubated for 24 h. Fluorescence labeled siGLO RISC-free siRNA was transfected separately and transfection efficiency was estimated using a fluorescence microscope. Transfection efficiency more than 80% was considered as optimal conditions for further experiments. Efficiency of siRNA on silencing of EP2 and EP4 genes and proteins was assessed by RT-PCR and western blot, respectively 72 h post-transfection knock-down efficiency was 70-80% in both 12Z and 22B cells.
(§3) Cell Proliferation Assay: The 12Z and 22B cells (1×10^5/well) were cultured in DMEM/F12 with 10% FBS in six-well plates. At 70%-80% confluency the cells were cultured in DMEM/F12 with 2% dextran charcoal-treated FBS and treated with inhibitors for EP1 (SC19220; […]), EP2 (AH6809; […]), EP4 (AH23848; […]), or a combination of EP2 (AH6809; […]) and EP4 (AH23848; […]) for 36 hours. The concentrations for each inhibitor was determined by dose-response studies using […] and an optimal concentration was selected based on its effects on proliferation of human endometriotic cells (FIGS. 6A-6B). These inhibitors competitively bind with respective receptors and inhibit their functions (40-42). For the siRNA study, 24 hours after transfection of siRNA the medium was replaced and the cells were cultured in 2% dextran charcoal-treated FBS, which was considered as time 0 hour, and cell proliferation was estimated at 36 hours. The number of cells was counted using a Coulter counter (11) and considered as 100% present in control. Data were expressed as mean±SEM of three independent studies conducted in duplicate.

[5] = test system: human endometriotic stromal cells 22B; test: Cell proliferation assay (Coulter counter); assay type: cell-based; settings: 22B cells; 0-200 concentration series
Experimental: as §2, §3

[6] = test system: human endometriotic epithelial cells 12Z; test: TUNEL apoptosis assay (flow cytometry, fluorescence microscopy); assay type: cell-based; settings: 12Z cells, 24 h; for Induced apoptosis (TUNEL, flow cytometry): AH6809 75 μM, AH23848 50 μM, alone or combined
Experimental: (§4) These well-characterized 12Z and 22B cells were cultured in DMEM/F12 without special steroid treatment containing 10% fetal bovine serum (FBS) and penicillin (100 U/ml), streptomycin (100 μg/ml) and amphotericin-B 2.5 μg/ml in a humidified 5% CO2 and 95% air at 37° C. as we described previously (11, 39). At 70-80% confluency the cells were cultured in DMEM/F12 with 2% dextran-charcoal-treated fetal bovine serum (DC-FBS) and treated with EP inhibitors (EP-I) for EP1 (SC19220-100 100 μM), EP2 (AH6809-75 μM) and/or EP4 (AH23848-50 μM) for 24 h.
as §2
(§5) Terminal deoxynucleotide transferase dUTP nick end labeling (TUNEL) assay: Non-adherent and adherent cells were harvested, mixed together, and resuspended at the concentrations of 1×10^6 cells/ml. Nicks in the DNA were determined by terminal deoxynucleotidyl transferase (TdT) and 5-bromo-2′-deoxyuridine 5′-triphosphate (BrdUTP) labeling using APO-BrdU TUNEL Assay Kit. Detection of BrdU incorporation at DNA break sites was achieved through Alexa Fluor 488 dye-labeled anti-BrdU antibody. The staining procedures were performed as recommended by manufacturers. Numbers of apoptotic cells were analyzed by a flowcytometer (FACSCaliber, Becton Dickinson, San Jose, Calif.) using Cell Quest software. In addition, the presence of TUNEL labeled DNA fragments were determined by fluorescence microscopy. Digital images were captured using a Zeiss Axioplan 2 Research Microscope with an Axiocam HR digital camera.

[7] = test system: human endometriotic stromal cells 22B; test: as above; assay type: cell-based; settings: 22B cells, 24 h; for Induced apoptosis (TUNEL, flow cytometry): AH6809 75 μM, AH23848 50 μM, alone or combined
Experimental: as §4, §2, §5

[8] = 25 mg/d for 6 months, women with endometriosis; cited from earlier work
endometriotic lesions = settings: nude mice model; cited from earlier work
[9] = Cell viability assay (WST-1); assay type: cell-based, human; settings: human, AH6809 75 μM, AH23848 50 μM, alone or combined, vs control, read-out: Decrease of cell viability
Experimental: as §1

[10] = test system: COX-2 along with p450 aromatase; settings: 3.75 mg, for 1 month; eutopic endometria; cited from earlier work

CS(=O)(=O)Nc1ccc([N+](=O)[O-])cc1OC1CCCCC1 [NS-398]
Regression of endometriotic implant (endometriotic implant): induced regression of endometriotic implant | Survival, migration and invasion [1]: prevents survival, migration, and invasion; also recorded: prevents survival, migration and invasion

O=C(c1ccc(OCCN2CCCCC2)cc1)c1c(-c2ccc(O)cc2)sc2cc(O)ccc12 [raloxifene]
Outcome of clinical trial (estrogen receptor): discontinued due to unfavorable outcomes

O=C(O)CC/C=C\CC[C@H]1[C@H](N2CCOCC2)C(=O)C[C@H]1OCc1ccc(-c2ccccc2)cc1 (relative stereo) [AH23848, (4Z)-7-[(rel-1S,2S,5R)-5-((1,1′-Biphenyl-4-yl)methoxy)-2-(4-morpholinyl)-3-oxocyclopentyl]-4-heptenoic acid]
Decrease of cell viability [2]: ~55% | Decrease of cell viability [3]: ~45% | Proliferation, dose response experiment [4]: decreased (P<0.05) proliferation | Proliferation, dose response experiment [5]: decreased (P<0.05) proliferation | Induced apoptosis (TUNEL, flow cytometry) [6]: ~55% | Induced apoptosis (TUNEL, flow cytometry) [7]: ~45%

C[C@]12CC[C@@H]3c4ccc(O)cc4C[C@@H](CCCCCCCCC[S+]([O-])CCCC(F)(F)C(F)(F)F)[C@H]3[C@@H]1CC[C@@H]2O (some centres unmarked) [fulvestrant]
Outcome of clinical trial (estrogen receptor): discontinued due to unfavorable outcomes

CS(=O)(=O)c1ccc(C2=C(c3ccccc3)C(=O)OC2)cc1 [rofecoxib]
Pelvic pain symptoms [8]: effectively suppressed the pelvic pain symptoms

CS(=O)(=O)Nc1ccc([N+](=O)[O-])cc1Oc1ccccc1 [nimesulide]
Number and size of endometriotic lesions (endometriotic lesions): failed to decrease number and size of endometriotic lesions

CC(C)Oc1ccc2c(=O)c3cc(C(=O)O)ccc3oc2c1 [AH6809, 6-Isopropoxy-9-oxoxanthene-2-carboxylic acid]
cytotoxicity at 75 μM ([9]; 12Z endometriotic epithelial cells, 12Z cells): ~55% | cytotoxicity at 75 μM ([9]; 22B endometriotic stromal cells, 22B cells): ~45% | Proliferation, dose response experiment [4]: decreased (P<0.05) proliferation | Proliferation, dose response experiment [5]: decreased (P<0.05) proliferation | Induced apoptosis (TUNEL, flow cytometry) [6]: ~55% | Induced apoptosis (TUNEL, flow cytometry) [7]: ~45%

CC(=O)NNC(=O)N1Cc2ccccc2Oc2ccc(Cl)cc21 [SC19220]
Proliferation, dose response experiment [4]: did not decrease proliferation | Proliferation, dose response experiment [5]: did not decrease proliferation | Induction of apoptosis (TUNEL) ([6]; SC19220 100 μM): did not induce apoptosis | Induction of apoptosis (TUNEL) ([7]; SC19220 100 μM): did not induce apoptosis

CCNC(=O)[C@@H]1CCCN1C(=O)[C@H](CCCNC(=N)N)NC(=O)[C@H](CC(C)C)NC(=O)[C@@H](CC(C)C)NC(=O)[C@H](Cc1ccc(O)cc1)NC(=O)[C@H](CO)NC(=O)[C@H](Cc1c[nH]c2ccccc12)NC(=O)[C@H](Cc1c[nH]cn1)NC(=O)[C@@H]1CCC(=O)N1 [leuprolide acetate]
Expression of COX-2 and p450 aromatase [10]: decreased expression of COX-2 along with p450 aromatase
